Laboratory results as given in patent publication US20230295197A1, “STAT5 and STAT6 Degraders and Uses Thereof” (REGENTS OF THE UNIVERSITY OF MICHICAN, priority 2022, published 2023).
Where two headings read alike, the source gives them in different places.

Tests used:
STAT5 = assay: Immunoblotting (Western blot) analysis of STAT5 degradation efficiency of degraders in treated cells; format: cell-based
Summary of the method: (§1)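 Protein levels of STAT5 and STAT6 were assessed in cells cultured at 37 °C in 10% FBS medium after compound exposure, by quantitative fluorescent Western blotting normalised to equal loading and referenced to GAPDH.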

STAT6 = molecular target: T1, STAT6 (Homo sapiens, UniProt P42226); assay: Immunoblotting (Western blot) analysis of STAT6 degradation efficiency of degraders in treated cells; format: cell-based; conditions: MOLM-16 cells, numeric bound, read-out: DC50 S6 MOLM-16
T1 construct: endogenous in cells; host or cells: MOLM-16, KU-812, SKNO1, MB231, L1236
T1 sequence (P42226 1-847): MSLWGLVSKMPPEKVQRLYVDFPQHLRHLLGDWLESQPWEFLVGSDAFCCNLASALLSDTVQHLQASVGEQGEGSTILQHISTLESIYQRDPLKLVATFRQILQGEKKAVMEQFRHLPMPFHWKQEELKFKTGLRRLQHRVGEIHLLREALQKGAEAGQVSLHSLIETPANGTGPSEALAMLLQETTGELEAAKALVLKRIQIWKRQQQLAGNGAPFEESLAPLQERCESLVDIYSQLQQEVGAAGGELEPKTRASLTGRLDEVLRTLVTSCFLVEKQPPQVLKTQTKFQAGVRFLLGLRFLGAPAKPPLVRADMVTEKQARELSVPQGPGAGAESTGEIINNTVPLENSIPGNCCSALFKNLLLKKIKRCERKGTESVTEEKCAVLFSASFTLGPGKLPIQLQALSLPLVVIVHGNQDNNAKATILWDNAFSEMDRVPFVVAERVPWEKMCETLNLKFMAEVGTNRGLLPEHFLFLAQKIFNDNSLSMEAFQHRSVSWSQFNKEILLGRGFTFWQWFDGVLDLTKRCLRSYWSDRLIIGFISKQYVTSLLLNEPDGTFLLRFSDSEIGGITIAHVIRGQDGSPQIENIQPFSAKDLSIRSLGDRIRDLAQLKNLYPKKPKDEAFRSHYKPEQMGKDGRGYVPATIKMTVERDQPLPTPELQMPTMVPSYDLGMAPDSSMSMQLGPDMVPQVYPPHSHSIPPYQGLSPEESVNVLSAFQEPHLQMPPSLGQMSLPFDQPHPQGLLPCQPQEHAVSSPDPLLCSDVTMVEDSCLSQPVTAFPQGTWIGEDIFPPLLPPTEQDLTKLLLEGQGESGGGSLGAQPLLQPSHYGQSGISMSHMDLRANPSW
Summary of the method: as §1

[1] = KU-812 cells, read-out: DC50 S5 KU-812
[2] = MOLM-16 cells, numeric bound, read-out: DC50 S5 MOLM-16
[3] = SKNO1 cells, read-out: DC50 S5 SKNO1
[4] = MOLM-16 cells, class symbols, read-out: DC50 S5 MOLM-16

| SMILES | DC50 (STAT5; [1]) [nM] | DC50 (STAT5; [2]) [nM] | DC50 (STAT5; [3]) [nM] | DC50 (STAT6) [nM] | DC50 (STAT5; [4]) [nM] |
| --- | --- | --- | --- | --- | --- |
| CC(C)(C)[C@H](NC(=O)c1cc2cc(C(F)(F)P(=O)(O)O)ccc2s1)C(=O)N1CCC[C@H]1C(=O)N(CCC(=O)NCCCC#Cc1cccc2c1CN(C1CCC(=O)NC1=O)C2=O)c1ccc(-c2ccccc2)cc1 (stereo partly drawn) [Compound 663, ((2-(((2S)-1-((2S)-2-([1,1′-biphenyl]-4-yl(3-((5-(2-(2,6-dioxopiperidin-3-yl)-1-oxoisoindolin-4-yl)pent-4-yn-1-yl)amino)-3-oxopropyl)carbamoyl)pyrrolidin-1-yl)-3,3-dimethyl-1-oxobutan-2-yl)carbamoyl)benzo[b]thiophen-5-yl)difluoromethyl)phosphonic acid] | 1000 to 10000 | > 300 | 1000 to 10000 | > 300 |  |
| O=C(CCN(C(=O)CN1CCCC[C@H](NC(=O)c2cc3cc(C(F)(F)P(=O)(O)O)ccc3s2)C1=O)c1ccc(Br)cc1)NCCCC#Cc1cccc2c1CN(C1CCC(=O)NC1=O)C2=O (stereo partly drawn) [Compound 664, ((2-(((3S)-1-(2-((4-bromophenyl)(3-((5-(2-(2,6-dioxopiperidin-3-yl)-1-oxoisoindolin-4-yl)pent-4-yn-1-yl)amino)-3-oxopropyl)amino)-2-oxoethyl)-2-oxoazepan-3-yl)carbamoyl)benzo[b]thiophen-5-yl)difluoromethyl)phosphonic acid] |  | > 300 |  | > 300 |  |
| CN(CCCC#Cc1cccc2c1CN(C1CCC(=O)NC1=O)C2=O)C(=O)CCN(C(=O)[C@@H]1CCCN1C(=O)[C@@H](NC(=O)c1cc2cc(C(F)(F)P(=O)(O)OCOC(=O)C(C)(C)C)ccc2s1)C(C)(C)C)c1ccc2scnc2c1 (stereo partly drawn) [Compound 676, ((((2-(((2S)-1-((2S)-2-(benzo[d]thiazol-5-yl(3-((5-(2-(2,6-dioxopiperidin-3-yl)-1-oxoisoindolin-4-yl)pent-4-yn-1-yl)(methyl)amino)-3-oxopropyl)carbamoyl)pyrrolidin-1-yl)-3,3-dimethyl-1-oxobutan-2-yl)carbamoyl)benzo[b]thiophen-5-yl)difluoromethyl)(hydroxy)phosphoryl)oxy)methyl pivalate] |  |  |  | > 300 | < 100 |
| CC(C)(C)[C@H](NC(=O)c1cc2cc(C(F)(F)P(=O)(O)O)ccc2s1)C(=O)N1CCC[C@H]1C(=O)N(CCC(=O)NCCCC#Cc1cccc2c1CN(C1CCC(=O)NC1=O)C2=O)c1ccc2c(c1)CCCO2 (stereo partly drawn) [Compound 669, ((2-(((2S)-1-((2S)-2-(chroman-6-yl(3-((5-(2-(2,6-dioxopiperidin-3-yl)-1-oxoisoindolin-4-yl)pent-4-yn-1-yl)amino)-3-oxopropyl)carbamoyl)pyrrolidin-1-yl)-3,3-dimethyl-1-oxobutan-2-yl)carbamoyl)benzo[b]thiophen-5-yl)difluoromethyl)phosphonic acid] |  | > 300 | > 10000 | > 300 |  |
| Cc1ncsc1-c1ccc([C@H](CC(=O)NCCCCCCCCCC(=O)N[C@@H]2C[C@@H](C(=O)Nc3ncc(-c4ccccc4)s3)N(C(=O)[C@@H](NC(=O)c3cc4cc(C(F)(F)P(=O)(O)O)ccc4s3)C(C)(C)C)C2)NC(=O)[C@@H]2C[C@@H](O)CN2C(=O)[C@@H](NC(=O)C2(F)CC2)C(C)(C)C)cc1 [Compound 579, (difluoro(2-(((S)-1-((2S,4R)-4-(10-((S)-3-((2S,4R)-1-((S)-2-(1-fluorocyclopropane-1-carboxamido)-3,3-dimethylbutanoyl)-4-hydroxypyrrolidine-2-carboxamido)-3-(4-(4-methylthiazol-5-yl)phenyl)propanamido)decanamido)-2-((5-phenylthiazol-2-yl)carbamoyl)pyrrolidin-1-yl)-3,3-dimethyl-1-oxobutan-2-yl)carbamoyl)benzo[b]thiophen-5-yl)methyl)phosphonic acid] |  | > 300 |  | > 300 |  |
| CC(C)(C)[C@H](NC(=O)c1cc2cc(C(F)(F)P(=O)(O)O)ccc2s1)C(=O)N1CCC[C@H]1C(=O)N(CCC(=O)NCCCC#Cc1cccc2c1CN(C1CCC(=O)NC1=O)C2=O)c1ccc2scnc2c1 (stereo partly drawn) [Compound 668, ((2-(((2S)-1-((2S)-2-(benzo[d]thiazol-5-yl(3-((5-(2-(2,6-dioxopiperidin-3-yl)-1-oxoisoindolin-4-yl)pent-4-yn-1-yl)amino)-3-oxopropyl)carbamoyl)pyrrolidin-1-yl)-3,3-dimethyl-1-oxobutan-2-yl)carbamoyl)benzo[b]thiophen-5-yl)difluoromethyl)phosphonic acid] | 100 to 1000 |  | 100 to 1000 | > 300 | < 100 |
| CCN1CC[C@H]2CC[C@@H](C(=O)N(CCC(=O)NCCCCC#Cc3cccc4c3CN(C3CCC(=O)NC3=O)C4=O)c3ccc(Br)cc3)N2C(=O)[C@@H](NC(=O)c2cc3cc(C(F)(F)P(=O)(O)O)ccc3s2)C1 (stereo partly drawn) [Compound 628, ((2-(((5S,8S,10aR)-8-((4-bromophenyl)(3-((6-(2-(2,6-dioxopiperidin-3-yl)-1-oxoisoindolin-4-yl)hex-5-yn-1-yl)amino)-3-oxopropyl)carbamoyl)-3-ethyl-6-oxodecahydropyrrolo[1,2-a][1,5]diazocin-5-yl)carbamoyl)benzo[b]thiophen-5-yl)difluoromethyl)phosphonic acid] |  | > 300 |  |  |  |
| CC(C)(C)[C@H](NC(=O)c1cc2cc(C(F)(F)P(=O)(O)O)ccc2s1)C(=O)N1CCC[C@H]1C(=O)N(CCC(=O)NCCCC#Cc1cccc2c1CN(C1CCC(=O)NC1=O)C2=O)c1cccc(-c2ccccc2)c1 (stereo partly drawn) [Compound 649, ((2-(((2S)-1-((2S)-2-([1,1′-biphenyl]-3-yl(3-((5-(2-(2,6-dioxopiperidin-3-yl)-1-oxoisoindolin-4-yl)pent-4-yn-1-yl)amino)-3-oxopropyl)carbamoyl)pyrrolidin-1-yl)-3,3-dimethyl-1-oxobutan-2-yl)carbamoyl)benzo[b]thiophen-5-yl)difluoromethyl)phosphonic acid] |  | > 300 | 1000 to 10000 |  |  |
| CC(C)(C)[C@H](NC(=O)c1cc2cc(C(F)(F)P(=O)(O)O)ccc2s1)C(=O)N1CCC[C@H]1C(=O)N(CCC(=O)NCCCC#Cc1cccc2c1CN(C1CCC(=O)NC1=O)C2=O)c1ccc(I)cc1 (stereo partly drawn) [Compound 637, ((2-(((2S)-1-((2S)-2-((3-((5-(2-(2,6-dioxopiperidin-3-yl)-1-oxoisoindolin-4-yl)pent-4-yn-1-yl)amino)-3-oxopropyl)(4-iodophenyl)carbamoyl)pyrrolidin-1-yl)-3,3-dimethyl-1-oxobutan-2-yl)carbamoyl)benzo[b]thiophen-5-yl)difluoromethyl)phosphonic acid] |  | > 300 | 100 to 1000 |  |  |
| CC(C)(C)[C@H](NC(=O)c1cc2cc(C(F)(F)P(=O)(O)O)ccc2s1)C(=O)N1C[C@H](OCc2ccccc2)C[C@H]1C(=O)N(CCC(=O)NCCCCC#Cc1cccc2c1CN(C1CCC(=O)NC1=O)C2=O)c1ccc(Br)cc1 (stereo partly drawn) [Compound 619, ((2-(((2S)-1-((2S,4R)-4-(benzyloxy)-2-((4-bromophenyl)(3-((6-(2-(2,6-dioxopiperidin-3-yl)-1-oxoisoindolin-4-yl)hex-5-yn-1-yl)amino)-3-oxopropyl)carbamoyl)pyrrolidin-1-yl)-3,3-dimethyl-1-oxobutan-2-yl)carbamoyl)benzo[b]thiophen-5-yl)difluoromethyl)phosphonic acid] |  | > 300 |  |  |  |
| CC(C)(C)c1ccc(N(CCC(=O)NCCCC#Cc2cccc3c2CN(C2CCC(=O)NC2=O)C3=O)C(=O)[C@@H]2CCCN2C(=O)[C@@H](NC(=O)c2cc3cc(C(F)(F)P(=O)(O)O)ccc3s2)C(C)(C)C)cc1 (stereo partly drawn) [Compound 647, ((2-(((2S)-1-((2S)-2-((4-(tert-butyl)phenyl)(3-((5-(2-(2,6-dioxopiperidin-3-yl)-1-oxoisoindolin-4-yl)pent-4-yn-1-yl)amino)-3-oxopropyl)carbamoyl)pyrrolidin-1-yl)-3,3-dimethyl-1-oxobutan-2-yl)carbamoyl)benzo[b]thiophen-5-yl)difluoromethyl)phosphonic acid] |  | > 300 | 1000 to 10000 |  |  |
| CC(C)(C)[C@H](NC(=O)c1cc2cc(C(F)(F)P(=O)(O)O)ccc2s1)C(=O)N1C[C@@H](OCc2ccccc2)C[C@H]1C(=O)N(CCC(=O)NCCC#Cc1cccc2c1CN(C1CCC(=O)NC1=O)C2=O)c1ccc(Br)cc1 (stereo partly drawn) [Compound 622, ((2-(((2S)-1-((2S,4S)-4-(benzyloxy)-2-((4-bromophenyl)(3-((4-(2-(2,6-dioxopiperidin-3-yl)-1-oxoisoindolin-4-yl)but-3-yn-1-yl)amino)-3-oxopropyl)carbamoyl)pyrrolidin-1-yl)-3,3-dimethyl-1-oxobutan-2-yl)carbamoyl)benzo[b]thiophen-5-yl)difluoromethyl)phosphonic acid] |  | > 300 |  |  |  |
